Data as given in ChEMBL document CHEMBL5550205, “Discovery of a NCOA4 Degrader for Labile Iron-Dependent Ferroptosis Inhibition” (J Med Chem, 2024).
Calls of active or inactive are those of the source. No cut-off for these calls is given here.

How the values were obtained:
AML12 [1] = experiment: Protection against Brequinal-induced ferroptosis in mouse AML12 cells assessed as increase in cell viability at 200 nM measured for 48 hrs by cell counting-lite 2.0 analysis; assay type: functional, cell-based
AML12 [2] = experiment: Effect on FTL mRNA expression in mouse AML12 cells at 0.12 to 10 uM measured for 36 hrs by RT-qPCR analysis; assay type: functional, cell-based; details: dose 0.12-10 µM
AML12 [3] = experiment: Protection against CCl4-induced ferroptosis in mouse AML12 cells assessed as reduction in lipid peroxidation level at 200 to 1000 nM; assay type: functional, cell-based; details: dose 200-1000 nM
Mus musculus [4] = experiment: Inhibition of CCl4-induced ferroptosis in acute liver injury C57BL/6 mouse model assessed as decrease in IL-6 expression in liver at 10 to 30 mg/kg, ip pretreated with compound for 3 hrs followed by CCl4 induction and measured after 12 to 24 hrs by q-PCR analysis; assay type: functional, organism-based; details: dose 10-30 mg/kg, time 15-27 hrs
AML12 [5] = experiment: Protection against Brequinal-induced ferroptosis in mouse AML12 cells assessed as reduction in lipid peroxidation level at 200 nM measured for 48 hrs; assay type: functional, cell-based
AML12 [6] = experiment: Protection against CCl4-induced ferroptosis in mouse AML12 cells assessed as […] at 200 nM measured for 48 hrs; assay type: functional, cell-based
AML12 [7] = experiment: Protection against Erastin-induced ferroptosis in mouse AML12 cells assessed as increase in cell viability at 200 nM measured for 48 hrs by cell counting-lite 2.0 analysis; assay type: functional, cell-based
AML12 [8] = experiment: Downregulation of Free Fe2+ level in mouse AML12 cells by FerroOrange dye based laser scanning confocal microscopic analysis; assay type: functional, cell-based
AML12 [9] = experiment: Effect on FTH1 mRNA expression in mouse AML12 cells at 0.12 to 10 uM measured for 36 hrs by RT-qPCR analysis; assay type: functional, cell-based; details: dose 0.12-10 µM
AML12 [10] = experiment: Protection against CCl4-induced ferroptosis in mouse AML12 cells assessed as reduction in Fe2+ level at 200 to 1000 nM FerroOrange dye based fluorescence analysis; assay type: functional, cell-based; details: dose 200-1000 nM
[11] = target: von Hippel-Lindau disease tumor suppressor/Nuclear receptor coactivator 4 (Mus musculus) (UniProt P40338+Q5U4H9); experiment: PROTAC activity at NCOA4/VHL in mouse AML12 cells assessed as effect on NCOA4 mRNA level at 0.12 to 10 uM incubated for 24 hrs by qRT-PCR analysis; assay type: cell-based; details: dose 0.12-10 µM
von Hippel-Lindau disease tumor suppressor/Nuclear receptor coactivator 4 (Mus musculus), sequence (P40338 whole entry, looked up): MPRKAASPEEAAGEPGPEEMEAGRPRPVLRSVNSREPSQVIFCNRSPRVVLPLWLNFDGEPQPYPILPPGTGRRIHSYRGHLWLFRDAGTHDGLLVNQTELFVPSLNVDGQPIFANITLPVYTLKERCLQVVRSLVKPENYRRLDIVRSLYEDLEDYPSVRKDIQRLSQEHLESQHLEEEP
von Hippel-Lindau disease tumor suppressor/Nuclear receptor coactivator 4 (Mus musculus), sequence (Q5U4H9 whole entry, looked up): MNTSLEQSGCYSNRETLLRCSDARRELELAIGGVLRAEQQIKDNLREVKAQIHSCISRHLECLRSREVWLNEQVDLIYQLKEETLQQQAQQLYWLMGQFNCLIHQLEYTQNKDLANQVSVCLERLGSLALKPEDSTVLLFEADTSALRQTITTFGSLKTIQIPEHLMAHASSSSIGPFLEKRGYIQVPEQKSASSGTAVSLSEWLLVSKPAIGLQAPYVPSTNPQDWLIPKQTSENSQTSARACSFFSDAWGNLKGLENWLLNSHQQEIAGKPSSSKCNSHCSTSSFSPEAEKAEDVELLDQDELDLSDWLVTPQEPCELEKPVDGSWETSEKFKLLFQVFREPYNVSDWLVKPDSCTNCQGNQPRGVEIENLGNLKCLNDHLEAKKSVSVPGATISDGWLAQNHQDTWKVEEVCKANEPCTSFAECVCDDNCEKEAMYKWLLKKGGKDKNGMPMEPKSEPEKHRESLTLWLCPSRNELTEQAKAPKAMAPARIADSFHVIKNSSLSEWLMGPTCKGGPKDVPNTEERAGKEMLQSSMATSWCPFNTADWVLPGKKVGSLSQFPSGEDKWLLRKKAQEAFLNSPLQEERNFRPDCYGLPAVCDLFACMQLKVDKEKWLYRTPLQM

Mus musculus [12] = experiment: Inhibition of CCl4-induced ferroptosis in acute liver injury C57BL/6 mouse model assessed as attenuation of iron deposition in liver at 10 to 30 mg/kg, ip pretreated with compound for 3 hrs followed by CCl4 induction and measured after 12 to 24 hrs by perls blue staining based analysis; assay type: functional, organism-based; details: dose 10-30 mg/kg, time 15-27 hrs
AML12 [13] = experiment: Upregulation of FTL level in mouse AML12 cells incubated for 24 hrs by Western blot analysis; assay type: functional, cell-based; details: dose <= 10.0 µM
Mus musculus [14] = experiment: Inhibition of CCl4-induced ferroptosis in acute liver injury C57BL/6 mouse model assessed as reduction in hepatocyte damage at 10 to 30 mg/kg, ip pretreated with compound for 3 hrs followed by CCl4 induction and measured after 12 to 24 hrs by H and E staining based analysis; assay type: functional, organism-based; details: dose 10-30 mg/kg, time 15-27 hrs
AML12 [15] = experiment: Inhibition of Ptgs2 mRNA expression in mouse AML12 cells measured for 36 hrs by qRT-PCR analysis; assay type: functional, cell-based; details: dose <= 10.0 µM
Mus musculus [16] = experiment: Inhibition of CCl4-induced ferroptosis in acute liver injury C57BL/6 mouse model assessed as reduction in inflammation at 10 to 30 mg/kg, ip pretreated with compound for 3 hrs followed by CCl4 induction and measured after 12 to 24 hrs by H and E staining based analysis; assay type: functional, organism-based; details: dose 10-30 mg/kg, time 15-27 hrs
AML12 [17] = experiment: Protection against Erastin-induced ferroptosis in mouse AML12 cells assessed as reduction in lipid peroxidation level at 200 nM measured for 48 hrs; assay type: functional, cell-based
Mus musculus [18] = experiment: Inhibition of CCl4-induced ferroptosis in acute liver injury C57BL/6 mouse model assessed as inhibition of ALT level at 10 to 30 mg/kg, ip pretreated with compound for 3 hrs followed by CCl4 induction and measured after 12 to 24 hrs; assay type: functional, organism-based; details: dose 10-30 mg/kg, time 15-27 hrs
Mus musculus [19] = experiment: Inhibition of CCl4-induced ferroptosis in acute liver injury C57BL/6 mouse model assessed as downregulation of FTL level at 10 to 30 mg/kg, ip pretreated with compound for 3 hrs followed by CCl4 induction and measured after 12 to 24 hrs by Western blot analysis; assay type: functional, organism-based; details: dose 10-30 mg/kg, time 15-27 hrs
AML12 [20] = experiment: Protection against iFSP1-induced ferroptosis in mouse AML12 cells assessed as attenuation of Fe2+ level by fluorescence imaging analysis; assay type: functional, cell-based
AML12 [21] = experiment: Protection against Erastin-induced ferroptosis in mouse AML12 cells assessed as attenuation of Fe2+ level by fluorescence imaging analysis; assay type: functional, cell-based
Mus musculus [22] = experiment: Inhibition of CCl4-induced ferroptosis in acute liver injury C57BL/6 mouse model assessed as reduction in TNF-alpha level in serum at 10 to 30 mg/kg, ip pretreated with compound for 3 hrs followed by CCl4 induction and measured after 12 to 24 hrs by ELISA analysis; assay type: functional, organism-based; details: dose 10-30 mg/kg, time 15-27 hrs
[23] = target: von Hippel-Lindau disease tumor suppressor/Nuclear receptor coactivator 4 (Mus musculus, UniProt P40338+Q5U4H9); experiment: PROTAC activity at NCOA4/VHL in mouse AML12 cells assessed as reduction in intracellular NCOA4 level incubated for 24 hrs by Western blot analysis; assay type: cell-based
von Hippel-Lindau disease tumor suppressor/Nuclear receptor coactivator 4 (Mus musculus, UniProt P40338+Q5U4H9), sequence (P40338 whole entry): as the sequence (P40338 whole entry, looked up) above
von Hippel-Lindau disease tumor suppressor/Nuclear receptor coactivator 4 (Mus musculus, UniProt P40338+Q5U4H9), sequence (Q5U4H9 whole entry): as the sequence (Q5U4H9 whole entry, looked up) above

AML12 [24] = experiment: Protection against RSL3-induced ferroptosis in mouse AML12 cells assessed as increase in cell viability at 200 nM measured for 48 hrs by cell counting-lite 2.0 analysis; assay type: functional, cell-based
AML12 [25] = experiment: Protection against iFSP-induced ferroptosis in mouse AML12 cells assessed as increase in cell viability at 200 nM measured for 48 hrs by cell counting-lite 2.0 analysis; assay type: functional, cell-based
Mus musculus [26] = experiment: Inhibition of CCl4-induced ferroptosis in acute liver injury C57BL/6 mouse model assessed as restoration of liver color fading at 10 to 30 mg/kg, ip pretreated with compound for 3 hrs followed by CCl4 induction and measured after 12 to 24 hrs; assay type: functional, organism-based; details: dose 10-30 mg/kg, time 15-27 hrs
[27] = target: von Hippel-Lindau disease tumor suppressor/Nuclear receptor coactivator 4 (Homo sapiens, UniProt P40337+Q13772); experiment: PROTAC activity at NCOA4/VHL in human HeLa cells assessed as downregulation of NCOA4 level measured after 3 hrs by Western blot analysis; assay type: cell-based
von Hippel-Lindau disease tumor suppressor/Nuclear receptor coactivator 4 (Homo sapiens, UniProt P40337+Q13772), sequence (P40337 whole entry, looked up): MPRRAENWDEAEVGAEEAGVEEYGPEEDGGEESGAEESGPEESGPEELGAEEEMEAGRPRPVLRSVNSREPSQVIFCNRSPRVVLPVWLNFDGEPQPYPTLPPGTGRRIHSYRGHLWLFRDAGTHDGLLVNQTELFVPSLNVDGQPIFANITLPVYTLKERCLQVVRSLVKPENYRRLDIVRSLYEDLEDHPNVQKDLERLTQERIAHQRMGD
von Hippel-Lindau disease tumor suppressor/Nuclear receptor coactivator 4 (Homo sapiens, UniProt P40337+Q13772), sequence (Q13772 whole entry, looked up): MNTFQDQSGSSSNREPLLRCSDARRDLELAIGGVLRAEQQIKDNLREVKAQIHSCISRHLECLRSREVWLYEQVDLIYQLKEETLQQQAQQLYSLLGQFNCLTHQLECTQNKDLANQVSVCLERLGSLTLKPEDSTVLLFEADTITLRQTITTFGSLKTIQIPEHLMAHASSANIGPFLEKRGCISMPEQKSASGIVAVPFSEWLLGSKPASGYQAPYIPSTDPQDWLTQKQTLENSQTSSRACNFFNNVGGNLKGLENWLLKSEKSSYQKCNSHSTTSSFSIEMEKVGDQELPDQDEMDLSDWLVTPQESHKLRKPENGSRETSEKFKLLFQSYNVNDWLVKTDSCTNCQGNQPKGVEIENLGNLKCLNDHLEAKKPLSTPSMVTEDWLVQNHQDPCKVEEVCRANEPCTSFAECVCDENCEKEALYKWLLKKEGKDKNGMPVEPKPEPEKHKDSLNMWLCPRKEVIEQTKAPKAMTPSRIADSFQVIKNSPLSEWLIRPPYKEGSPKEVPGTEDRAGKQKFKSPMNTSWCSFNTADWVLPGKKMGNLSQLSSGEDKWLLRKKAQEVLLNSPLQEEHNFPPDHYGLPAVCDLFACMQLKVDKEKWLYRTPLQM

Activity [11]: Active
DC50 [23]: 0.202 µM
Activity [27]: Active
Compound: Cc1ncsc1-c1ccc(CNC(=O)[C@@H]2C[C@@H](O)CN2C(=O)[C@H](NC(=O)CCCC(=O)NCCOCCOCCOCCOc2ccc3c(c2)CCN(c2cccc(-c4nc5ccc(N6CCN(C)CC6)cc5[nH]4)c2)C3)C(C)(C)C)cc1
Activity (AML12 [1]): Active
Activity (AML12 [2]): inactive
Activity (AML12 [3]): Active
inhibition (Mus musculus [4]): Active
Activity (AML12 [5]): Active
Activity (AML12 [6]): Active
Activity (AML12 [7]): Active
Activity (AML12 [8]): Active
Activity (AML12 [9]): inactive
Activity (AML12 [10]): Active
inhibition (Mus musculus [12]): Active
Activity (AML12 [13]): Dose-Dependent Effect
inhibition (Mus musculus [14]): Active
inhibition (AML12 [15]): Dose-Dependent Effect
inhibition (Mus musculus [16]): Active
Activity (AML12 [17]): Active
inhibition (Mus musculus [18]): Active
inhibition (Mus musculus [19]): Active
Activity (AML12 [20]): Active
Activity (AML12 [21]): Active
inhibition (Mus musculus [22]): Active
Activity (AML12 [24]): Active
Activity (AML12 [25]): Active
inhibition (Mus musculus [26]): Active
